Patent publication US11622976B2, “Urine alkali agent useful for treatment of cancer patient” (Delta-Fly Pharma, Inc., priority 2018, dated 2023)
Entries after “also recorded” stand apart in the source; their conditions may differ.

Columns and labels:
[1] = system: gastric cancer (gastroesophageal junction cancer); conditions: cited from earlier work
lung cancer = assay: Urinary alkalinization therapy, lung cancer patient; type: in vivo, human
Source text: A patient successively underwent a surgery for breast cancer in March, 2009, a surgery for endometrial cancer in October, 2010 and a surgery for lung cancer (adenocarcinoma, upper right lobe) in December, 2011.
From January, 2012, application of a urinary alkalinization therapy, including orally administering magnesium oxide (laxative, Magmitt (manufactured by Kyowa Chemical Industry Co., Ltd.)) every day in a dose of 2 g per day after a meal three times (the dose being divided into three portions), was initiated.

B16 melanoma cells = conditions: aqueous solution 200 mmol/L (17 g/L) fed, with cancer immunotherapy by e.g. a cancer immunity-checkpoint inhibitor; vs water without sodium hydrogen carbonate; cited from earlier work
cancer cells = conditions: pHe shifted from acidic to alkaline range by gradually increasing the concentration in the serum; cited from earlier work
[2] = system: breast cancer associated with lung metastasis; assay: Urinary alkalinization therapy, breast cancer patient with lung metastasis (person); type: in vivo, human
Experimental: A patient was diagnosed with breast cancer […] and underwent a surgical operation. In January, 2011, transfer of recurrent breast cancer to the lung was found. Administration of Taxotere (80 mg/m^2) was continued at the intervals of 3 weeks. […] Because of this, the dose of Taxotere was reduced to 60 mg/m^2 (intervals of 3 weeks).

Molecule: Opdivo: immune checkpoint inhibitor containing anti-human PD-1 monoclonal antibody (nivolumab)
- median overall survival ([1]; gastric cancer patients (gastroesophageal junction cancer), Lancet. 2017 Dec. 2, 390 (10111): 2461-2471): about 5.26 months
- tumor shrinkage and decrease of a tumor marker level ([1]; patients with end-stage gastric cancer): seldom confirmed

Molecule: [O]=[Mg] [magnesium oxide]
- urine pH value (lung cancer; continuous oral administration, 2 g per day): kept in the alkaline pH range
- recurrence/metastasis, development of another cancer (lung cancer; oral, 2 g per day in three portions, every day from January, 2012, after surgeries): recurrence and metastasis of lung cancer have not been observed; also recorded: Neither development of another cancer nor recurrence/metastasis has been found

Molecule: O=C([O-])O.[Na+] [sodium hydrogen carbonate]
- antitumor effect (B16 melanoma cells): a significantly high antitumor effect is obtained
- proliferation and invasion of cancer cells (cancer cells): the proliferation and invasion of cancer cells can be suppressed

Molecule: CC(=O)O[C@@]12CO[C@@H]1C[C@H](O)[C@@]1(C)C(=O)[C@H](O)C3=C(C)[C@@H](OC(=O)[C@H](O)[C@@H](NC(=O)OC(C)(C)C)c4ccccc4)C[C@@](O)([C@@H](OC(=O)c4ccccc4)[C@H]21)C3(C)C [Taxotere, docetaxel]
- side effect ([2]; Taxotere alone 80 mg/m^2 every 3 weeks, six months): severe side effect
- disease state ([2]; Taxotere alone reduced to 60 mg/m^2 every 3 weeks): the disease did not become stable
